Test results: PubChem BioAssay (NCI)
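48-hour exposure; five concentrations; linearly interpolated endpoints. GI50 marks 50% less growth. Definition used: TGI = concentration required for complete inhibition of growth.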

Tests used:
Test in all cases: inhibition of tumour cell growth, NCI panel, 48 h
DLD-1 colon = test system: DLD-1 colon
HCC-2998 colon = test system: HCC-2998 colon
M19-MEL melanoma = test system: M19-MEL melanoma
MOLT-4 leukemia = test system: MOLT-4 leukemia
NCI-H460 lung = test system: NCI-H460 lung
SK-MEL-28 melanoma = test system: SK-MEL-28 melanoma
UACC-62 melanoma = test system: UACC-62 melanoma
A498 renal = test system: A498 renal
MDA-MB-231 breast = test system: MDA-MB-231 breast
T-47D breast = test system: T-47D breast

O=C1c2ccccc2C(=O)c2cc3c(cc21)CS(=O)C3
TGI (DLD-1 colon): > 100 µM
TGI (HCC-2998 colon): > 100 µM
TGI (M19-MEL melanoma): > 100 µM
TGI (MOLT-4 leukemia): > 100 µM
TGI (NCI-H460 lung): > 100 µM
TGI (SK-MEL-28 melanoma): > 100 µM
TGI (UACC-62 melanoma): > 100 µM

C#Cc1cccc(Nc2ncnc3cc(NC(=O)CCl)ccc23)c1
GI50 (A498 renal): 2.77 µM
TGI (A498 renal): 7.28 µM
GI50 (HCC-2998 colon): 4.16 µM
TGI (HCC-2998 colon): 8.46 µM
GI50 (MDA-MB-231 breast): 3.35 µM
TGI (MDA-MB-231 breast): 7.28 µM
GI50 (MOLT-4 leukemia): 0.739 µM
TGI (MOLT-4 leukemia): 3.45 µM
GI50 (NCI-H460 lung): 2.89 µM
TGI (NCI-H460 lung): 6.63 µM
GI50 (SK-MEL-28 melanoma): 3.67 µM
TGI (SK-MEL-28 melanoma): 7.34 µM
GI50 (T-47D breast): 2.43 µM
TGI (T-47D breast): 5.93 µM
GI50 (UACC-62 melanoma): 1.53 µM
TGI (UACC-62 melanoma): 4.99 µM

Cc1nc(N)nc(N)c1CCCCc1ccc(N)cc1
TGI (DLD-1 colon): 31.6 µM
TGI (HCC-2998 colon): 15.7 µM
TGI (M19-MEL melanoma): 25.5 µM
TGI (MOLT-4 leukemia): 35.2 µM
TGI (NCI-H460 lung): 13.6 µM
TGI (SK-MEL-28 melanoma): 23.5 µM
TGI (UACC-62 melanoma): 14.1 µM

O=C(c1ccc(O)cc1O)C1C(c2ccc(O)cc2)OC(c2ccc(O)cc2)C1C(=O)c1ccc(O)cc1O (configuration not stated)
TGI (DLD-1 colon): > 100 µM
TGI (HCC-2998 colon): 33.3 µM
TGI (M19-MEL melanoma): 36.5 µM
TGI (NCI-H460 lung): > 100 µM
TGI (SK-MEL-28 melanoma): 36 µM

CCOC(=O)[C@@H](C)C[C@H](Cc1ccccc1)NC(=O)c1csc([C@@H](C[C@H](C(C)C)N(C)C(=O)[C@@H](NC(=O)[C@H]2CCCCN2C)C(C)(C)CC)OC(C)=O)n1
GI50 (A498 renal): < 0.00167 µM
TGI (A498 renal): 0.0114 µM
GI50 (HCC-2998 colon): < 0.00167 µM
TGI (HCC-2998 colon): 2.77 µM
GI50 (MDA-MB-231 breast): 0.00283 µM
TGI (MDA-MB-231 breast): 1.18 µM
GI50 (MOLT-4 leukemia): 0.00338 µM
TGI (MOLT-4 leukemia): > 13.1 µM
GI50 (NCI-H460 lung): < 0.00167 µM
TGI (NCI-H460 lung): > 12.9 µM
GI50 (SK-MEL-28 melanoma): 1.2 µM
TGI (SK-MEL-28 melanoma): > 16.7 µM
GI50 (T-47D breast): < 0.00167 µM
TGI (T-47D breast): > 16.7 µM
GI50 (UACC-62 melanoma): < 0.00167 µM
TGI (UACC-62 melanoma): > 16.7 µM

COc1ccc(-c2cc(-c3ccc(Nc4nc(Nc5ccccc5)nc(Nc5ccc(Cl)cc5)n4)cc3)nc(N)n2)cc1
GI50 (A498 renal): 9.29 µM
TGI (A498 renal): 20 µM
GI50 (HCC-2998 colon): 12.8 µM
TGI (HCC-2998 colon): 35 µM
GI50 (MDA-MB-231 breast): 8.28 µM
TGI (MDA-MB-231 breast): > 50 µM
GI50 (MOLT-4 leukemia): 0.623 µM
TGI (MOLT-4 leukemia): 12 µM
GI50 (NCI-H460 lung): 8.57 µM
TGI (NCI-H460 lung): 26.7 µM
GI50 (SK-MEL-28 melanoma): 10.9 µM
TGI (SK-MEL-28 melanoma): 26.5 µM
GI50 (T-47D breast): 6.3 µM
TGI (T-47D breast): 21.7 µM
GI50 (UACC-62 melanoma): 12.1 µM
TGI (UACC-62 melanoma): > 50 µM

Oc1ccc(Cl)cc1C(c1cc(Cl)ccc1O)C(Cl)(Cl)Cl
GI50 (A498 renal): 1.67 µM
TGI (A498 renal): 3.53 µM
GI50 (HCC-2998 colon): 1.69 µM
TGI (HCC-2998 colon): 3.28 µM
GI50 (MDA-MB-231 breast): 1.71 µM
TGI (MDA-MB-231 breast): 3.86 µM
GI50 (MOLT-4 leukemia): 1.54 µM
TGI (MOLT-4 leukemia): 5.06 µM
GI50 (NCI-H460 lung): 2.13 µM
TGI (NCI-H460 lung): 4.58 µM
GI50 (SK-MEL-28 melanoma): 1.8 µM
TGI (SK-MEL-28 melanoma): 4.02 µM
GI50 (T-47D breast): 3.32 µM
TGI (T-47D breast): 12.4 µM
GI50 (UACC-62 melanoma): 1.59 µM
TGI (UACC-62 melanoma): 3.82 µM

O=C1CC2OCC=C3CN4CCC56c7ccccc7N1C5C2C3CC46O (configuration not stated)
TGI (A498 renal): > 100 µM
TGI (HCC-2998 colon): > 100 µM
TGI (MDA-MB-231 breast): > 100 µM
TGI (MOLT-4 leukemia): > 100 µM
TGI (NCI-H460 lung): > 100 µM
TGI (SK-MEL-28 melanoma): > 100 µM
TGI (T-47D breast): > 100 µM
TGI (UACC-62 melanoma): > 100 µM

C=C1C(=O)O[C@H]2[C@H]1CC/C(COC(=O)c1cc(OC)c(OC)c(OC)c1)=C\CC[C@@]1(C)O[C@@H]21
GI50 (A498 renal): 2.57 µM
TGI (A498 renal): 8.56 µM
GI50 (HCC-2998 colon): 1.92 µM
TGI (HCC-2998 colon): 3.88 µM
GI50 (MDA-MB-231 breast): 1.54 µM
TGI (MDA-MB-231 breast): 4.16 µM
GI50 (MOLT-4 leukemia): 1.64 µM
TGI (MOLT-4 leukemia): 5.55 µM
GI50 (NCI-H460 lung): 2.35 µM
TGI (NCI-H460 lung): 6.52 µM
GI50 (SK-MEL-28 melanoma): 1.59 µM
TGI (SK-MEL-28 melanoma): 3.37 µM
GI50 (T-47D breast): 0.931 µM
TGI (T-47D breast): 3.54 µM
GI50 (UACC-62 melanoma): 1.18 µM
TGI (UACC-62 melanoma): 2.67 µM
